System: IgE antibodies from patients
Assay: Wheat epitope mapping (2): overlapping 10-amino-acid peptide fragments shifted by one amino acid;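 further: key = sequence deemed particularly important within the common 15-residue sequence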
Format: binding, human
Conditions: sequence without X
Procedure, shortened: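 Residual binding was banded as <30% none, 30–<50% poor, 50–<70% somewhat poor and ≥70% retained, relative to the parent overlapping sequence set to 100%. Values were chemiluminescent IgE signals from patient sera after subtracting secondary-antibody-only controls. The peptides were spot-synthesised 10-mers shifted by one amino acid.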

[1] = serum of patient P50 (child, general immediate type allergy to wheat)
[2] = serum of patient P51 (child, general immediate type allergy to wheat)
[3] = serum of patient P53 (child, general immediate type allergy to wheat)
[4] = serum of patient G1 (adult, general immediate type allergy to wheat)
[5] = serum of patient G2 (adult, general immediate type allergy to wheat)
[6] = serum of patient G3 (adult, general immediate type allergy to wheat)
[7] = serum of patient G4 (adult, general immediate type allergy to wheat)
[8] = serum of patient G5 (adult, general immediate type allergy to wheat)
[9] = serum of patient G6 (adult, general immediate type allergy to wheat)
[10] = serum of patient G9 (adult, general immediate type allergy to wheat)

1618 (FVPISG; REGION 1..6: note = epitope) [compound 1618]
Rank of partial sequence as epitope binding to IgE antibody (serum of patient P20 (WDEIA)): Key

1619 (FVPISG; REGION 1..6: note = epitope) [compound 1619]
Rank of partial sequence as epitope binding to IgE antibody (serum of patient P21 (WDEIA)): Key

1620 (YNPDKV; REGION 1..6: note = epitope) [compound 1620]
Rank of partial sequence as epitope binding to IgE antibody (serum of patient P24 (WDEIA)): Preferably

1621 (YNPD; REGION 1..4: note = epitope) [compound 1621]
Rank of partial sequence as epitope binding to IgE antibody (serum of patient P24 (WDEIA)): Key

1623 (YNPD; REGION 1..4: note = epitope) [compound 1623]
Rank of partial sequence as epitope binding to IgE antibody (serum of patient P25 (WDEIA)): Key

1624 (FVPISG; REGION 1..6: note = epitope) [compound 1624]
Rank of partial sequence as epitope binding to IgE antibody (serum of patient P25 (WDEIA)): Key

1626 (YNPD; REGION 1..4: note = epitope) [compound 1626]
Rank of partial sequence as epitope binding to IgE antibody (serum of patient P26 (WDEIA)): Key

1628 (YNPDKVP; REGION 1..7: note = epitope) [compound 1628]
Rank of partial sequence as epitope binding to IgE antibody (serum of patient P27 (WDEIA)): Preferably

1629 (YNPD; REGION 1..4: note = epitope) [compound 1629]
Rank of partial sequence as epitope binding to IgE antibody (serum of patient P27 (WDEIA)): Key

1630 (PDKVPFVPIS; REGION 1..10: note = epitope) [compound 1630]
Rank of partial sequence as epitope binding to IgE antibody (serum of patient P27 (WDEIA)): Key

1631 (DKVPFVPISG; REGION 1..10: note = epitope) [compound 1631]
Rank of partial sequence as epitope binding to IgE antibody (serum of patient P28 (WDEIA)): Key

1632 (YNPD; REGION 1..4: note = epitope) [compound 1632]
Rank of partial sequence as epitope binding to IgE antibody (serum of patient P29 (WDEIA)): Key

1633 (YNPD; REGION 1..4: note = epitope) [compound 1633]
Rank of partial sequence as epitope binding to IgE antibody (serum of patient P31 (WDEIA)): Key

1634 (YNPDKVPF; REGION 1..8: note = epitope) [compound 1634]
Rank of partial sequence as epitope binding to IgE antibody (serum of patient P32 (WDEIA)): Preferably

1635 (YNPD; REGION 1..4: note = epitope) [compound 1635]
Rank of partial sequence as epitope binding to IgE antibody (serum of patient P32 (WDEIA)): Key

1637 (YNPDKVPF; REGION 1..8: note = epitope) [compound 1637]
Rank of partial sequence as epitope binding to IgE antibody (serum of patient P33 (WDEIA)): Key

1639 (YNPDKV; REGION 1..6: note = epitope) [compound 1639]
Rank of partial sequence as epitope binding to IgE antibody (serum of patient P34 (WDEIA)): Key

1640 (DKVPFVPISG; REGION 1..10: note = epitope) [compound 1640]
Rank of partial sequence as epitope binding to IgE antibody (serum of patient P34 (WDEIA)): Key

1641 (YNPDKVP; REGION 1..7: note = epitope) [compound 1641]
Rank of partial sequence as epitope binding to IgE antibody (serum of patient P35 (WDEIA)): Preferably

1642 (YNPD; REGION 1..4: note = epitope) [compound 1642]
Rank of partial sequence as epitope binding to IgE antibody (serum of patient P35 (WDEIA)): Key

1643 (PDKVPFVPIS; REGION 1..10: note = epitope) [compound 1643]
Rank of partial sequence as epitope binding to IgE antibody (serum of patient P35 (WDEIA)): Key

1645 (YNPDKVPFV; REGION 1..9: note = epitope) [compound 1645]
Rank of partial sequence as epitope binding to IgE antibody (serum of patient P36 (WDEIA)): More preferably

1646 (YNPDKVPF; REGION 1..8: note = epitope) [compound 1646]
Rank of partial sequence as epitope binding to IgE antibody (serum of patient P36 (WDEIA)): Preferably

1647 (YNPD; REGION 1..4: note = epitope) [compound 1647]
Rank of partial sequence as epitope binding to IgE antibody (serum of patient P36 (WDEIA)): Key

1648 (FVPISG; REGION 1..6: note = epitope) [compound 1648]
Rank of partial sequence as epitope binding to IgE antibody (serum of patient P36 (WDEIA)): Key

1650 (YNPDKVPF; REGION 1..8: note = epitope) [compound 1650]
Rank of partial sequence as epitope binding to IgE antibody [1]: Preferably

1651 (NPDKVP; REGION 1..6: note = epitope) [compound 1651]
Rank of partial sequence as epitope binding to IgE antibody [1]: Key

1653 (YNPDKVPFV; REGION 1..9: note = epitope) [compound 1653]
Rank of partial sequence as epitope binding to IgE antibody [2]: Preferably

1654 (YNPDKVPF; REGION 1..8: note = epitope) [compound 1654]
Rank of partial sequence as epitope binding to IgE antibody [2]: Key

1655 (FVPISG; REGION 1..6: note = epitope) [compound 1655]
Rank of partial sequence as epitope binding to IgE antibody [2]: Key

1656 (NPDKVPFV; REGION 1..8: note = epitope) [compound 1656]
Rank of partial sequence as epitope binding to IgE antibody [3]: Key

1657 (VPFVPISG; REGION 1..8: note = epitope) [compound 1657]
Rank of partial sequence as epitope binding to IgE antibody [3]: Key

1658 (KVPFVPISG; REGION 1..9: note = epitope) [compound 1658]
Rank of partial sequence as epitope binding to IgE antibody (serum of patient P54 (child, general immediate type allergy to wheat)): Key

1659 (YNPDKVPF; REGION 1..8: note = epitope) [compound 1659]
Rank of partial sequence as epitope binding to IgE antibody [4]: Preferably

1660 (YNPDK; REGION 1..5: note = epitope) [compound 1660]
Rank of partial sequence as epitope binding to IgE antibody [4]: Key

1661 (FVPISG; REGION 1..6: note = epitope) [compound 1661]
Rank of partial sequence as epitope binding to IgE antibody [4]: Key

1663 (YNPDKVPFV; REGION 1..9: note = epitope) [compound 1663]
Rank of partial sequence as epitope binding to IgE antibody [5]: Preferably

1664 (YNPDKVPF; REGION 1..8: note = epitope) [compound 1664]
Rank of partial sequence as epitope binding to IgE antibody [5]: Key

1665 (VPFVPISG; REGION 1..8: note = epitope) [compound 1665]
Rank of partial sequence as epitope binding to IgE antibody [5]: Key

1666 (YNPDKVP; REGION 1..7: note = epitope) [compound 1666]
Rank of partial sequence as epitope binding to IgE antibody [6]: Preferably

1667 (NPDKVP; REGION 1..6: note = epitope) [compound 1667]
Rank of partial sequence as epitope binding to IgE antibody [6]: Key

1668 (FVPISG; REGION 1..6: note = epitope) [compound 1668]
Rank of partial sequence as epitope binding to IgE antibody [6]: Key

1669 (GYNPDKVPFV; REGION 1..10: note = epitope) [compound 1669]
Rank of partial sequence as epitope binding to IgE antibody [7]: More preferably

1670 (YNPDKVPFV; REGION 1..9: note = epitope) [compound 1670]
Rank of partial sequence as epitope binding to IgE antibody [7]: Preferably

1671 (YNPDKVPF; REGION 1..8: note = epitope) [compound 1671]
Rank of partial sequence as epitope binding to IgE antibody [7]: Key

1672 (PDKVPFVPIS; REGION 1..10: note = epitope) [compound 1672]
Rank of partial sequence as epitope binding to IgE antibody [7]: Key

1676 (KVPFVPISG; REGION 1..9: note = epitope) [compound 1676]
Rank of partial sequence as epitope binding to IgE antibody [8]: Preferably

1677 (PFVPISG; REGION 1..7: note = epitope) [compound 1677]
Rank of partial sequence as epitope binding to IgE antibody [8]: Key

1680 (YNPDKVPF; REGION 1..8: note = epitope) [compound 1680]
Rank of partial sequence as epitope binding to IgE antibody [9]: More preferably

1681 (DKVPF; REGION 1..5: note = epitope) [compound 1681]
Rank of partial sequence as epitope binding to IgE antibody [9]: Preferably

1683 (YNPDKVPF; REGION 1..8: note = epitope) [compound 1683]
Rank of partial sequence as epitope binding to IgE antibody [10]: Key

1684 (FVPISG; REGION 1..6: note = epitope) [compound 1684]
Rank of partial sequence as epitope binding to IgE antibody [10]: Key

1687 (EAANFT; REGION 1..6: note = epitope) [compound 1687]
Rank of partial sequence as epitope binding to IgE antibody (serum of patient P5 (WDEIA)): Key

1688 (KEAA; REGION 1..4: note = epitope) [compound 1688]
Rank of partial sequence as epitope binding to IgE antibody (serum of patient P14 (WDEIA)): Key

1689 (SQVIIM; REGION 1..6: note = epitope) [compound 1689]
Rank of partial sequence as epitope binding to IgE antibody (serum of patient P14 (WDEIA)): Key

1690 (EAANFT; REGION 1..6: note = epitope) [compound 1690]
Rank of partial sequence as epitope binding to IgE antibody (serum of patient P16 (WDEIA)): Key

1693 (KEAANFTS; REGION 1..8: note = epitope) [compound 1693]
Rank of partial sequence as epitope binding to IgE antibody (serum of patient P19 (WDEIA)): Preferably

1694 (EAANFTS; REGION 1..7: note = epitope) [compound 1694]
Rank of partial sequence as epitope binding to IgE antibody (serum of patient P19 (WDEIA)): Key

1695 (EAANFT; REGION 1..6: note = epitope) [compound 1695]
Rank of partial sequence as epitope binding to IgE antibody (serum of patient P20 (WDEIA)): Key

1698 (KEAANFT; REGION 1..7: note = epitope) [compound 1698]
Rank of partial sequence as epitope binding to IgE antibody (serum of patient P21 (WDEIA)): More preferably

1699 (EAANFT; REGION 1..6: note = epitope) [compound 1699]
Rank of partial sequence as epitope binding to IgE antibody (serum of patient P21 (WDEIA)): Preferably

1701 (EAANFT; REGION 1..6: note = epitope) [compound 1701]
Rank of partial sequence as epitope binding to IgE antibody (serum of patient P25 (WDEIA)): Key

1702 (SQVIIM; REGION 1..6: note = epitope) [compound 1702]
Rank of partial sequence as epitope binding to IgE antibody (serum of patient P25 (WDEIA)): Key

Source: patent US20240393292A1, “ALLERGY ANTIGEN AND EPITOPE THEREOF” (HOYU CO., LTD., priority 2019, published 2024)
